Data on 19 compounds can be found in patent US5180746A, “Aralkylamine compounds” (priority 1989, dated 1993).

Where a name gives a salt, the structure may show the parent alone.

The target of the experiment is T1, cholinesterase (Rattus norvegicus, UniProt P37136).
T1 construct: The S1 fraction of a cerebral cortex homogenate from male Wistar rats; from tissue; host or cells: cerebral cortex homogenate (S1 fraction), male Wistar rats
T1 sequence (P37136 32-614): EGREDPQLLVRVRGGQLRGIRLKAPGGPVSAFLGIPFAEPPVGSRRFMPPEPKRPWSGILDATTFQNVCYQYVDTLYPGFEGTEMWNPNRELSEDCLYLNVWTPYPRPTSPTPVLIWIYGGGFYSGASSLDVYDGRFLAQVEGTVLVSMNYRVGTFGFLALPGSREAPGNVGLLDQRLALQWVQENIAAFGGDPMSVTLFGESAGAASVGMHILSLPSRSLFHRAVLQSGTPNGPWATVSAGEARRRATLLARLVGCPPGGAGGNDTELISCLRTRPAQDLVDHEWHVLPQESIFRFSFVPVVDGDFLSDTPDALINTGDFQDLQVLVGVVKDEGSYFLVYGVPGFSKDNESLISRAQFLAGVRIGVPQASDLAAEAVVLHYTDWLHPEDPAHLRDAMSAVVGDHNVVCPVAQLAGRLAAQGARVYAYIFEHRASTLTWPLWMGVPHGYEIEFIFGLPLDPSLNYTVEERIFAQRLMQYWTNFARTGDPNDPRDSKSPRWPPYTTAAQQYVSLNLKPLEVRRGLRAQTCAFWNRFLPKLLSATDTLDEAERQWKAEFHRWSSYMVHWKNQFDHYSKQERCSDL
Description: anticholinesterase activity using (acetyl-[3H])-acetylcholine, S1 fraction of rat cerebral cortex homogenate. The class given is biochemical, male Wistar rats. To be noted: (acetyl-[3H])-acetylcholine substrate, 30 minutes incubation.
Description: The anticholinesterase activity of the compound of the invention was evaluated using (acetyl-[^3 H])-acetylcholine. The S1 fraction of a cerebral cortex homogenate from male Wistar rats was used as the cholinesterase source, (acetyl-[^3 H])-acetylcholine as the substrate and the test compound of the invention as the test substance. The incubation was carried out for 30 minutes and after the reaction was terminated, the system was shaken with a toluene scintillator to thereby transfer [^3 H]-acetic acid into the toluene layer. The radioactivity in the toluene layer was then measured with a liquid scintillation counter to estimate the anticholinesterase activity of the test compound.
The anticholinesterase activity of the test compound was expressed in 50% inhibitory concentration (IC50).
For `CCN(CCCCCCC1Cc2cc(OC)c(OC)cc2C1=O)Cc1ccccc1OC` (stereo not shown) [Example 3-15], it took 100 nM to reach half-maximal inhibition (IC50). This counts as sub-micromolar.

For `CCN(CCCCC1Cc2cc(OC)c(OC)cc2C1=O)Cc1cccc(OC)c1` (stereo not shown) [Example 3-8], it took 110 nM to reach half-maximal inhibition (IC50). In turn, `CCN(CCCCC1Cc2cc(OC)c(OC)cc2C1=O)Cc1ccccc1` (stereo not shown) [Example 3-3] displayed an IC50 of 76 nM. For `CCN(CCCCCC1Cc2cc(OC)c(OC)cc2C1O)Cc1ccccc1OC` (stereo not shown) [Example 4, 1,2-Dihydro-5,6-dimethoxy-2-[5-[N-ethyl-N-[(2-methoxyphenyl)methyl]amino]pentyl]-1-hydroxyindene], the half-inhibitory concentration (IC50) turned out to be 160 nM. This IC50 lies about 2.1-fold higher than the previous one. In turn, `CCN(CCCCC1Cc2cc(OC)ccc2C1=O)Cc1ccccc1OC` (stereo not shown) [Example 3-10] had an IC50 of 110 nM. The value for `CCN(CCCCC1Cc2cc3c(cc2C1=O)OCO3)Cc1ccccc1OC` (stereo not shown) [Example 3-11] was 170 nM. The compound `CCN(CCCCCC1=Cc2cc(OC)c(OC)cc2C1)Cc1ccccc1OC` [Example 5, 5,6-Dimethoxy-2-[5-[N-ethyl-N-[(2-methoxyphenyl)methyl]amino]pentyl]indene hydrochloride] yielded an IC50 of 600 nM. Against the preceding compound, the IC50 is about 3.5-fold higher. Under `CCN(CCCCC1Cc2cc(OC)c(OC)c(OC)c2C1=O)Cc1ccccc1OC` (stereo not shown) [Example 3-9] stands 90 nM; under `CCN(CCCCC1Cc2cc(N3CCCC3)ccc2C1=O)Cc1ccccc1OC` (stereo not shown) [Example 8, 2-[4-[N-Ethyl-N-[(2-methoxyphenyl)methyl]amino]butyl]-5-pyrrolidino-1-indanone fumarate], 81 nM. The value for `CCN(CCCCCC1Cc2cc(OC)c(OC)cc2C1=O)Cc1ccccc1` (stereo not shown) [Example 3-1] was 120 nM; that for `CCN(CCCCC1Cc2cc(OC)c(OC)cc2C1=O)Cc1cccc(O)c1` (stereo not shown) [Example 3-14] was 630 nM. In turn, `CCN(CCC1Cc2cc(OC)c(OC)cc2C1=O)Cc1ccccc1OC` (stereo not shown) [Example 3-5] returned an IC50 of 680 nM. Under `CCN(CCCCC1Cc2cc(OC)c(OC)cc2C1=O)Cc1ccccc1OC` (stereo not shown) [Example 3-2] stands 20 nM. On to `CCN(CCCC1Cc2cc(OC)c(OC)cc2C1=O)Cc1cccc(O)c1` (stereo not shown) [Example 3-13], for which the half-inhibitory concentration (IC50) stood at 210 nM.

The compound `CCN(CCCCCC1CCc2cc(OC)ccc2C1=O)Cc1ccccc1OC` (stereo not shown) [Example 3-12] registered an IC50 of 130 nM. Compared with the last compound, the IC50 is about 1.6-fold lower. Under `CCN(CCCC1Cc2cc(OC)c(OC)cc2C1=O)Cc1ccccc1OC` (stereo not shown) [Example 3-6] stands 14 nM; under `CCN(CCCC1Cc2cc(OC)c(OC)cc2C1=O)Cc1ccccc1OC` (stereo not shown) [Example 3-4], 11 nM. Compound `CCN(CCCCC1Cc2cc(N3CCCC3)ccc2C1=O)Cc1ccccc1` (stereo not shown) [Example 7, 2-[4-[N-Ethyl-N-(phenylmethyl)amino]butyl]-5-pyrrolidino-1-indanone fumarate] had an IC50 of 143 nM. `CCN(CCCCC1Cc2cc(OC)c(OC)cc2C1=O)Cc1ccccc1OC` (stereo not shown) [Example 3-7] returned an IC50 of 27 nM.

One may read the IC50 as the concentration that inhibits the measured activity by half.
